# Experimental data taken from article PMC10041525, “New Dual Inhibitors of Bacterial Topoisomerases with Broad-Spectrum Antibacterial Activity and In Vivo Efficacy against Vancomycin-Intermediate Staphylococcus aureus” (Journal of Medicinal Chemistry, 2023).
# Read-outs that look alike come from different tables or passages of the source.
# Columns and labels:
# P. aeruginosa ATCC 27853 = assay: IHMA QC MIC; type: cell-based
# [1] = system: 100 A. baumannii strains (50 MDR, 50 non-MDR); assay: MIC broth microdilution at IHMA Europe, panel of 100 strains; type: cell-based; details: Acinetobacter baumannii, read-out: MIC
smiles,measurement,setting,value
"C[C@@H](O)[C@H]1C(=O)N2C(C(=O)O)=C(S[C@@H]3CN[C@H](C(=O)N(C)C)C3)[C@H](C)[C@H]12 [Meropenem, meropenem]","MIC (QC, repeated tests)",P. aeruginosa ATCC 27853,1 mg/L
same,MIC,"P. aeruginosa ATCC 27853; Pseudomonas aeruginosa, ATCC27853, read-out: MIC (QC, repeated tests)",0.5 mg/L
same,MIC,"[1]; A. baumannii IHMA 1769393, Lithuania 2018, Non-MDR",0.25 mg/L
same,MIC,"[1]; A. baumannii IHMA 1769782, Israel 2018, MDR",> 16 mg/L
same,MIC,"[1]; A. baumannii IHMA 1769910, Israel 2018, Non-MDR",0.25 mg/L
same,MIC,"[1]; A. baumannii IHMA 1790317, Czech Republic 2018, Non-MDR",0.12 mg/L
same,MIC,"[1]; A. baumannii IHMA 1790916, Romania 2018, Non-MDR",≤ 0.06 mg/L
same,MIC,"[1]; A. baumannii IHMA 1791877, Israel 2018, MDR",> 16 mg/L
same,MIC,"[1]; A. baumannii IHMA 1792961, Jordan 2018, MDR",> 16 mg/L
same,MIC,"[1]; A. baumannii IHMA 1795669, Tunisia 2018, Non-MDR",0.25 mg/L
same,MIC,"[1]; A. baumannii IHMA 1814276, Lebanon 2018, MDR",> 16 mg/L
same,MIC,"[1]; A. baumannii IHMA 1815198, Kuwait 2018, MDR",> 16 mg/L
same,MIC,"[1]; A. baumannii IHMA 1815856, Israel 2018, MDR",> 16 mg/L
same,MIC,"[1]; A. baumannii IHMA 1821468, South Africa 2018, Non-MDR",0.25 mg/L
same,MIC,"[1]; A. baumannii IHMA 1829500, Georgia 2018, Non-MDR",0.12 mg/L
same,MIC,"[1]; A. baumannii IHMA 1830924, United Kingdom 2018, Non-MDR",0.5 mg/L
same,MIC,"[1]; A. baumannii IHMA 1849819, Kuwait 2018, MDR",> 16 mg/L
same,MIC,"[1]; A. baumannii IHMA 1849829, Kuwait 2018, Non-MDR",0.12 mg/L
same,MIC,"[1]; A. baumannii IHMA 1857118, Slovenia 2018, Non-MDR",0.25 mg/L
same,MIC,"[1]; A. baumannii IHMA 1863631, France 2018, Non-MDR",0.12 mg/L
same,MIC,"[1]; A. baumannii IHMA 1870054, United States 2018, Non-MDR",0.25 mg/L
same,MIC,"[1]; A. baumannii IHMA 1884428, Italy 2018, Non-MDR",0.12 mg/L
same,MIC,"[1]; A. baumannii IHMA 1884990, Germany 2018, Non-MDR",0.25 mg/L
same,MIC,"[1]; A. baumannii IHMA 1900538, Turkey 2018, Non-MDR",0.12 mg/L
same,MIC,"[1]; A. baumannii IHMA 1913773, Kenya 2018, Non-MDR",0.25 mg/L
same,MIC,"[1]; A. baumannii IHMA 1926285, Qatar 2018, Non-MDR",≤ 0.06 mg/L
same,MIC,"[1]; A. baumannii IHMA 1926288, Qatar 2018, MDR",> 16 mg/L
same,MIC,"[1]; A. baumannii IHMA 1957343, Portugal 2019, Non-MDR",0.25 mg/L
same,MIC,"[1]; A. baumannii IHMA 1963732, Turkey 2019, MDR",> 16 mg/L
same,MIC,"[1]; A. baumannii IHMA 1967860, Spain 2019, Non-MDR",0.25 mg/L
same,MIC,"[1]; A. baumannii IHMA 1971673, Latvia 2019, MDR",> 16 mg/L
same,MIC,"[1]; A. baumannii IHMA 1975075, Israel 2019, Non-MDR",0.25 mg/L
same,MIC,"[1]; A. baumannii IHMA 1977077, Kuwait 2019, Non-MDR",0.5 mg/L
same,MIC,"[1]; A. baumannii IHMA 1983151, Greece 2019, MDR",> 16 mg/L
same,MIC,"[1]; A. baumannii IHMA 1984665, Lithuania 2019, MDR",> 16 mg/L
same,MIC,"[1]; A. baumannii IHMA 1986678, Turkey 2019, Non-MDR",0.25 mg/L
same,MIC,"[1]; A. baumannii IHMA 1986738, Turkey 2019, MDR",> 16 mg/L
same,MIC,"[1]; A. baumannii IHMA 1987162, Croatia 2019, MDR",> 16 mg/L
same,MIC,"[1]; A. baumannii IHMA 1993615, Turkey 2019, MDR",> 16 mg/L
same,MIC,"[1]; A. baumannii IHMA 1994284, Italy 2019, MDR",> 16 mg/L
same,MIC,"[1]; A. baumannii IHMA 1995161, Czech Republic 2019, Non-MDR",0.25 mg/L
same,MIC,"[1]; A. baumannii IHMA 1997936, Morocco 2019, Non-MDR",0.12 mg/L
same,MIC,"[1]; A. baumannii IHMA 1999178, Belgium 2019, Non-MDR",0.25 mg/L
same,MIC,"[1]; A. baumannii IHMA 2003279, Turkey 2019, MDR",> 16 mg/L
same,MIC,"[1]; A. baumannii IHMA 2014367, Jordan 2019, Non-MDR",0.25 mg/L
same,MIC,"[1]; A. baumannii IHMA 2014931, South Africa 2019, Non-MDR",1 mg/L
same,MIC,"[1]; A. baumannii IHMA 2019315, Romania 2019, Non-MDR",0.12 mg/L
same,MIC,"[1]; A. baumannii IHMA 2020360, Croatia 2019, MDR",> 16 mg/L
same,MIC,"[1]; A. baumannii IHMA 2031511, Greece 2019, Non-MDR",0.12 mg/L
same,MIC,"[1]; A. baumannii IHMA 2031524, Greece 2019, MDR",> 16 mg/L
same,MIC,"[1]; A. baumannii IHMA 2034657, Tunisia 2019, Non-MDR",0.25 mg/L
same,MIC,"[1]; A. baumannii IHMA 2035089, Serbia 2019, MDR",> 16 mg/L
same,MIC,"[1]; A. baumannii IHMA 2035134, Serbia 2019, Non-MDR",0.25 mg/L
same,MIC,"[1]; A. baumannii IHMA 2038976, Hungary 2019, MDR",> 16 mg/L
same,MIC,"[1]; A. baumannii IHMA 2051503, Serbia 2019, MDR",> 16 mg/L
same,MIC,"[1]; A. baumannii IHMA 2058329, Slovenia 2019, Non-MDR",0.12 mg/L
same,MIC,"[1]; A. baumannii IHMA 2065587, France 2019, Non-MDR",0.12 mg/L
same,MIC,"[1]; A. baumannii IHMA 2099294, United Kingdom 2019, Non-MDR",0.25 mg/L
same,MIC,"[1]; A. baumannii IHMA 2129256, Qatar 2019, Non-MDR",0.12 mg/L
same,MIC,"[1]; A. baumannii IHMA 2154584, Israel 2020, MDR",16 mg/L
same,MIC,"[1]; A. baumannii IHMA 2155340, Kenya 2020, MDR",16 mg/L
same,MIC,"[1]; A. baumannii IHMA 2156634, Turkey 2020, MDR",> 16 mg/L
